The values below come from the NIST ThermoML archive (doi:10.1021/je800571y).

The conditions of data set [1]: 101 kPa, Liquid.
Data set [2] is described as follows: xn = mol fraction of the nth substance listed. Particulars: 101 kPa, Liquid.

For orientation: mass density means the mass of a sample divided by its volume. By viscosity is commonly meant the internal friction of a fluid under shear.

± gives the expanded uncertainty stated by the source.

Turning to `CC(C)CO` [2-methyl-1-propanol], the mass density in data set [1] (293.15 K) is listed as 801.68 ± 0.98 kg/m3; in data set [1] (298.15 K) it was 797.8 ± 1 kg/m3; in data set [1] (303.15 K), 794.16 ± 1.1 kg/m3; in data set [1] (308.15 K), 790.06 ± 1.1 kg/m3; in data set [1] (313.15 K), 786.7 ± 1.1 kg/m3. The viscosity came out at 4.037 ± 0.71 mPa·s in data set [1] (293.15 K); 3.33 ± 0.59 mPa·s in data set [1] (298.15 K); 2.875 ± 0.52 mPa·s in data set [1] (303.15 K); 2.421 ± 0.44 mPa·s in data set [1] (308.15 K); 1.967 ± 0.36 mPa·s in data set [1] (313.15 K).
With `CC(C)CO` [2-methyl-1-propanol] + CCC(C)=O, the mass density is listed as 801.68 ± 0.98 kg/m3 in data set [2] (293.15 K, x2 = 0); 797.8 ± 1 kg/m3 in data set [2] (298.15 K, x2 = 0); 794.16 ± 1.1 kg/m3 in data set [2] (303.15 K, x2 = 0); 790.06 ± 1.1 kg/m3 in data set [2] (308.15 K, x2 = 0); 786.7 ± 1.1 kg/m3 in data set [2] (313.15 K, x2 = 0). Also, the viscosity in data set [2] (293.15 K, x2 = 0) is reported as 4.037 ± 0.71 mPa·s; in data set [2] (298.15 K, x2 = 0), 3.33 ± 0.59 mPa·s; in data set [2] (303.15 K, x2 = 0) it was 2.875 ± 0.52 mPa·s; in data set [2] (308.15 K, x2 = 0) it was 2.421 ± 0.44 mPa·s; in data set [2] (313.15 K, x2 = 0) it was 1.967 ± 0.36 mPa·s.
As to `CCC(C)(C)O` [2-methylbutan-2-ol], the mass density in data set [1] (293.15 K) amounted to 809.61 ± 1.1 kg/m3; in data set [1] (298.15 K), 805.01 ± 1.1 kg/m3; in data set [1] (303.15 K) it was 800.41 ± 1.1 kg/m3; in data set [1] (308.15 K), 795.81 ± 1.1 kg/m3; in data set [1] (313.15 K), 791.21 ± 1.2 kg/m3. Besides, the viscosity is 5.108 ± 0.88 mPa·s in data set [1] (293.15 K); 4.474 ± 0.78 mPa·s in data set [1] (298.15 K); 3.909 ± 0.69 mPa·s in data set [1] (303.15 K); 3.387 ± 0.6 mPa·s in data set [1] (308.15 K); 2.909 ± 0.52 mPa·s in data set [1] (313.15 K).
Turning to `CCC(C)O` (centres undefined) [butan-2-ol], the mass density in data set [1] (293.15 K) was 806.48 ± 1 kg/m3; in data set [1] (298.15 K) it was 802.35 ± 1 kg/m3; in data set [1] (303.15 K), 798.96 ± 1.1 kg/m3; in data set [1] (308.15 K), 794.18 ± 1.1 kg/m3; in data set [1] (313.15 K) it was 790.07 ± 1.1 kg/m3. In addition, the viscosity in data set [1] (293.15 K) amounted to 3.632 ± 0.64 mPa·s; in data set [1] (298.15 K) it was 2.998 ± 0.54 mPa·s; in data set [1] (303.15 K), 2.498 ± 0.45 mPa·s; in data set [1] (308.15 K) it was 2.054 ± 0.38 mPa·s; in data set [1] (313.15 K), 1.799 ± 0.33 mPa·s.
As for `CCC(C)O` (centres undefined) [butan-2-ol] + CCC(C)=O, the mass density came out at 806.48 ± 1 kg/m3 in data set [2] (293.15 K, x2 = 0); 802.35 ± 1 kg/m3 in data set [2] (298.15 K, x2 = 0); 798.96 ± 1.1 kg/m3 in data set [2] (303.15 K, x2 = 0); 794.18 ± 1.1 kg/m3 in data set [2] (308.15 K, x2 = 0); 790.07 ± 1.1 kg/m3 in data set [2] (313.15 K, x2 = 0). Also, the viscosity stood at 3.632 ± 0.64 mPa·s in data set [2] (293.15 K, x2 = 0); 2.998 ± 0.54 mPa·s in data set [2] (298.15 K, x2 = 0); 2.498 ± 0.45 mPa·s in data set [2] (303.15 K, x2 = 0); 2.054 ± 0.38 mPa·s in data set [2] (308.15 K, x2 = 0); 1.799 ± 0.33 mPa·s in data set [2] (313.15 K, x2 = 0).
As for `CCC(C)=O` [butanone], the mass density stood at 804.92 ± 1.1 kg/m3 in data set [1] (293.15 K); 799.7 ± 1.1 kg/m3 in data set [1] (298.15 K); 794.81 ± 1.1 kg/m3 in data set [1] (303.15 K); 789.78 ± 1.2 kg/m3 in data set [1] (308.15 K); 784.32 ± 1.2 kg/m3 in data set [1] (313.15 K). Besides, the viscosity in data set [1] (298.15 K) is listed as 0.2828 ± 0.074 mPa·s; in data set [1] (303.15 K), 0.2666 ± 0.071 mPa·s; in data set [1] (308.15 K), 0.2601 ± 0.07 mPa·s; in data set [1] (313.15 K), 0.2545 ± 0.069 mPa·s.
For the molecule `CCC(C)=O` [butanone] + CCC(C)(C)O, the mass density is reported as 804.92 ± 1.1 kg/m3 in data set [2] (293.15 K, x1 = 1); 799.7 ± 1.1 kg/m3 in data set [2] (298.15 K, x1 = 1); 794.81 ± 1.1 kg/m3 in data set [2] (303.15 K, x1 = 1); 789.78 ± 1.2 kg/m3 in data set [2] (308.15 K, x1 = 1); 784.32 ± 1.2 kg/m3 in data set [2] (313.15 K, x1 = 1). Also, the viscosity in data set [2] (293.15 K, x1 = 1) was 0.3956 ± 0.093 mPa·s; in data set [2] (298.15 K, x1 = 1), 0.2828 ± 0.074 mPa·s; in data set [2] (303.15 K, x1 = 1), 0.2666 ± 0.071 mPa·s; in data set [2] (308.15 K, x1 = 1), 0.2601 ± 0.07 mPa·s; in data set [2] (313.15 K, x1 = 1), 0.2545 ± 0.069 mPa·s.
With `CC(C)O` [propan-2-ol], the mass density in data set [1] (293.15 K) was found to be 785.45 ± 0.99 kg/m3; in data set [1] (298.15 K), 781.26 ± 0.98 kg/m3; in data set [1] (303.15 K), 777.97 ± 1.1 kg/m3; in data set [1] (308.15 K), 772.59 ± 1.1 kg/m3; in data set [1] (313.15 K), 768.32 ± 1.1 kg/m3. Besides, the viscosity amounted to 2.226 ± 0.41 mPa·s in data set [1] (293.15 K); 1.91 ± 0.35 mPa·s in data set [1] (298.15 K); 1.737 ± 0.32 mPa·s in data set [1] (303.15 K); 1.524 ± 0.29 mPa·s in data set [1] (308.15 K); 1.347 ± 0.26 mPa·s in data set [1] (313.15 K).
Take `CC(C)O` [propan-2-ol] + CCC(C)=O: the mass density in data set [2] (293.15 K, x2 = 0) stood at 785.45 ± 0.99 kg/m3; in data set [2] (298.15 K, x2 = 0), 781.26 ± 0.98 kg/m3; in data set [2] (303.15 K, x2 = 0) it was 777.97 ± 1.1 kg/m3; in data set [2] (308.15 K, x2 = 0) it was 772.59 ± 1.1 kg/m3; in data set [2] (313.15 K, x2 = 0), 768.32 ± 1.1 kg/m3. The viscosity in data set [2] (293.15 K, x2 = 0) was 2.226 ± 0.41 mPa·s; in data set [2] (298.15 K, x2 = 0) it was 1.91 ± 0.35 mPa·s; in data set [2] (303.15 K, x2 = 0) it was 1.737 ± 0.32 mPa·s; in data set [2] (308.15 K, x2 = 0), 1.524 ± 0.29 mPa·s; in data set [2] (313.15 K, x2 = 0), 1.347 ± 0.26 mPa·s.
